Experimental data as given in patent publication EP0007319A1, “Indan-1-carboxylic acid derivatives,process for their preparation and pharmaceutical preparations containing these compounds” (priority 1978, dated 1980).

Assays:
Magen = assay: Ulcer test (gastric ulceration); format: in vivo, Wistar-Eatten (SPF)
Text: Eine häufige Komplikation bei der Therapie mit nichtsteroidalen Entzündungshemmern stellt das Auftreten von Magenulcerationen dar. Diese Nebenwirkung kann im Tierversuch nachgewiesen werden, wobei als Dosis die Menge Testsubstanz verwendet wird, bei der im Adjuvans-Arthritis Test eine 40 %ige Abheilung beobachtet wird. Der Ulkus-Test wird wie folgt durchgeführt.
Es werden männliche Wistar-Eatten (SPF) verwandt. Die Tiere liege in einer Gewichtsspanne von 130 + 10 g. 16 Stunden vor Versuchsbeginn werden die Tiere vom Futter abgesetzt; sie erhalten Wasser ad libitum.
Pro Dosis werden 5 Tiere eingesetzt. Die Substanzen werden einmal oral, in Natriumelorid gelöst' oder als Kristallsuspension unter Zusatz von 85 mg% Myrj 53_appliziert.
3 Stunden nach Substanzapplikation injiziert man 1 ml einer 3 %igen Lösung des Farbstoffs Diphenylreinblau intravenös und tötet das Tier. Der Magen wird reseziert und mikroskopisch auf Anzahl von Epithclläsionen und Ulcera, die durch Farbstoffanreichcrunsen hervortreten, untersucht.

Adjuvans-Arthritis = assay: Adjuvant arthritis test (antiphlogistic activity); format: in vivo, Ratten des Stammes Lewis (LEW); conditions: Rattus norvegicus; dose giving 40 % healing of right hind paw; M. butyricum adjuvant; oral, daily over 4 days from day 11; Lewis rats; read-out: Adjuvans-Arthritis Test in mg/kg Tier (ED40)
Text: Die antiphlogistische Wirksamkeit der eriindungsgemäßen Substanzen kann mit Hilfe des bekannten Adjuvans-Arthritis-Testes ermittelt werden, der wie folgt durchgeführt wird:
Es werden weibliche und männliche Ratten des Stammes Lewis (LEW) in der Gewichtsspanne zwischen 110 - 190 g verwendet. Die Tiere erhalten Trinkwasser und Altromin-Preßfutter ad libitum.
Für jede Dosisgruppe werden 10 Ratten eingesetzt .
Mycobacterium butyricum der Firma Difko, Detroit, wird als Reizmittel verwandt. Eine Suspension von 0,5 mg M. butyricum in 0,1 ml dünnflüssigem Paraffin. (DAB 7) wird in die rechte Hinterpfote subplantar injiziert.
Die Testsubstanzen werden vom 11. Versuchstag an täglich über 4 Tage oral gegeben. Die Substanzen werden als klare wässrige Lösung oder als Kristallsuspension unter Zusatz von Myrj 53 (85 mg.%) in isotonischer Natriumchlorid-Lösung verabreicht.
Die Ratten werden in bezug auf ihr Köpergewicht möglichst gleichmäßig in verschiedene Gruppen eingeteilt. Nach plethysmographischej Volumenmessung der rechten Hinterpfote wird in diese subplantar 0,1 ml Adjuvans injiziert. Die rechten Hinterpfoten werden vom 14. Versuchstag bis zum Versuchsende gemessen. Die Versuchsdauer beträgt 3 Wochen.
Bestimmt wird die Dosis an Testsubstanz, bei der eine 40 %ige Abheilung beobachtet wird (=ED40).

[1] = single oral dose equal to the ED40 of the adjuvant arthritis test, male Wistar rats, fasted 16 h, stomach examined 3 h after application

Compound | Anzahl der Magenulzera bei gleicher Dosis (Magen; [1]) | ED40 (Adjuvans-Arthritis) [mg/kg] | Anzahl der Magenulzera bei gleicher Dosis (Magen; rat, in vivo, po)
O=C(O)C1CCc2cc(C=C3CCCC3)c(Cl)cc21 (stereo not drawn) [Verbindung 9, 6-Chlor-5-cyclopentyliden-methyl-indan-1-carbon-säure] | 0,7 | 40 | 
O=C(O)C1CCc2cc(C3CCCCC3)ccc21 (stereo not drawn) [Verbindung 3, 5-Cyclohexyl-indan-1-carbonsäure] |  | 50 | 8,3
O=C(O)C1CCc2cc(CC3CCCC3)c(Cl)cc21 (stereo not drawn) [Verbindung 8, 6-Chlor-5-cyclopentyl-methyl-indan-1-carbonsäure] | 2,2 | 30 | 
O=C(O)C1CCc2cc(C3CCCCC3)c(Cl)cc21 (stereo not drawn) [Verbindung 4, 6-Chlor-5-cyclohexyl-indan-1-carbonsäure] |  | 4 | 7,8
CC(C(=O)O)c1ccc(CC2CC2)cc1 (stereo not drawn) [Verbindung 5, 2-(4-Cyclopropylmethyl-phenyl)-propionsäure] | 5,4 | 90 | 
CC(C)Cc1ccc(C(C)C(=O)O)cc1 (stereo not drawn) [Verbindung 1] |  | 100 | 6,8
CC(C(=O)O)c1ccc(CC2CCCC2)c(Cl)c1 (stereo not drawn) [Verbindung 7, 2-(3-Chlor-4-cyclopentyl-methyl-phenyl)-propionsäure] | 0,6 | 3 | 
CC(C(=O)O)c1ccc(C2CCCCC2)cc1 (stereo not drawn) [Verbindung 2, 2-(4-Cyclohexyl-phenyl)-propionsäure] |  | 40 | 7,6
CC(C(=O)O)c1ccc(CC2CCCC2)cc1 (stereo not drawn) [Verbindung 6, 2-(4-Cyclopentylmethyl-phenyl)-propionsäure] | 0,6 | 10 | 
